This is an account of results in patent publication US8883812B2, “Piperidinyl pyrimidine amides as Kv7 potassium channel openers” (Pfizer Inc., priority 2010, dated 2014).

As a reminder, the Cmax is the peak of the concentration-time curve.

Series [1] in a line: Compound concentrations (exposure) in rat DRF safety study.
For a further series, the system named is Male Wistar Han IGS rats. Kind of series: Safety studies - behavioral observations (rat DRF). Particulars: for Rat DRF Dose, Threshold for MCS / Rat DRF Dose, NOEL / Rat DRF Dose, Threshold for SAE: oral gavage, single dose; for Rat DRF Dose, Threshold for MCS: manageable clinical signs; for Rat DRF Dose, NOEL: no observable effect limit; for Rat DRF Dose, Threshold for SAE: serious adverse event; for Rat DRF Dose, Threshold for MCS / Rat DRF Dose, NOEL / Rat DRF Dose, Threshold for SAE / margin with regards to serious adverse events: rat; for margin with regards to serious adverse events: text statement comparing with retigabine.

Series [2] can be described thus: Predicted human efficacious concentration. Particulars: unbound plasma.
The next series in a line: in vivo. Particulars: male, Wistar Han IGS (CRL:WI [Han]), rat, po.
Where [3] appears, read: read-out: Rat DRF Cmax, Threshold for MCS, oral gavage, at MCS threshold dose.
Setting [4] is: read-out: Rat DRF Cmax, Threshold for SAE, oral gavage, at SAE threshold dose.
[5] abbreviates: ratio of free brain exposure at the dose to projected human concentration.

`CCOC(=O)Nc1ccc(NCc2ccc(F)cc2)cc1N` [Retigabine, N-(2-amino-4-(4-fluorobenzylamino)-phenyl)carbamic acid ethyl ester, reference compound]: in series [1] (read-out: Rat DRF Cmax, NOEL, oral gavage, at NOEL dose), the Cmax was 870 nM. Further, the Cmax in series [1] (setting [3]) is 870 to 2390 nM. Also, the Cmax in series [1] (setting [4]) amounted to 2390 nM. Also, in the series with Male Wistar Han IGS rats, the “Rat DRF Dose, Threshold for MCS” value was in the range of 30 to 50 mg/kg; the “Rat DRF Dose, NOEL” value worked out at 30 mg/kg; the “Rat DRF Dose, Threshold for SAE” value was 50 mg/kg; the “margin with regards to serious adverse events” value is 3.9 ×. Also, the “Predicted human Ceff Cp,u” value in series [2] is reported as 607 nM.

As to `COc1nc(N2CCC(OC)CC2)nc(OC)c1NC(=O)CC(C)(C)C` [Example 1, N-(4,6-dimethoxy-2-(4-methoxypiperidin-1-yl)pyrimidin-5-yl)-3,3-dimethylbutanamide], the Cmax in series [1] (setting [3]) came out at 99 nM. Moreover, the Cmax in series [1] (setting [4]) was found to be 866 nM. Besides, in the series on Male Wistar Han IGS rats, the “Rat DRF Dose, Threshold for MCS” value stood at 10 mg/kg; the “Rat DRF Dose, NOEL” value is on record as 3 mg/kg; the “Rat DRF Dose, Threshold for SAE” value worked out at 100 mg/kg; the “margin with regards to serious adverse events” value came to 69 ×. In the series on Male Wistar Han IGS rats (setting [5]), the “Rat DRF TI (toxicity index), NOEL” value amounted to 4.2; the “Rat DRF TI (toxicity index), Threshold for MCS” value is given as 7.6; the “Rat DRF TI (toxicity index), Threshold for SAE” value was 67. The molecule further had a Cmax in “in vivo” of 54 nM. Further, the “Predicted human Ceff Cp,u” value in series [2] is 13 nM.
